From ChEMBL document CHEMBL4177526, “Discovery and structure activity relationship of the first potent cryptosporidium FIKK kinase inhibitor” (Bioorg Med Chem, 2017)

Tests used:
[1] = target: Serine/threonine-protein kinase pim-2 (Homo sapiens) (UniProt Q9P1W9); test: Inhibition of human PIM2 (2 to 334 residues) assessed as residual activity at 500 nM in presence of 33P-ATP by filter binding assay relative to control
[2] = target: cAMP-dependent protein kinase catalytic subunit alpha (Homo sapiens) (UniProt P17612); test: Inhibition of human PKAalpha (2 to 351 residues) assessed as residual activity at 500 nM in presence of 33P-ATP by filter binding assay relative to control
[3] = target: Tyrosine-protein kinase ZAP-70 (Homo sapiens) (UniProt P43403); test: Inhibition of human ZAP70 (1 to 619 residues) assessed as residual activity at 500 nM in presence of 33P-ATP by filter binding assay relative to control
Tyrosine-protein kinase ZAP-70 (Homo sapiens), sequence (P43403 whole entry, the tested form may be a part): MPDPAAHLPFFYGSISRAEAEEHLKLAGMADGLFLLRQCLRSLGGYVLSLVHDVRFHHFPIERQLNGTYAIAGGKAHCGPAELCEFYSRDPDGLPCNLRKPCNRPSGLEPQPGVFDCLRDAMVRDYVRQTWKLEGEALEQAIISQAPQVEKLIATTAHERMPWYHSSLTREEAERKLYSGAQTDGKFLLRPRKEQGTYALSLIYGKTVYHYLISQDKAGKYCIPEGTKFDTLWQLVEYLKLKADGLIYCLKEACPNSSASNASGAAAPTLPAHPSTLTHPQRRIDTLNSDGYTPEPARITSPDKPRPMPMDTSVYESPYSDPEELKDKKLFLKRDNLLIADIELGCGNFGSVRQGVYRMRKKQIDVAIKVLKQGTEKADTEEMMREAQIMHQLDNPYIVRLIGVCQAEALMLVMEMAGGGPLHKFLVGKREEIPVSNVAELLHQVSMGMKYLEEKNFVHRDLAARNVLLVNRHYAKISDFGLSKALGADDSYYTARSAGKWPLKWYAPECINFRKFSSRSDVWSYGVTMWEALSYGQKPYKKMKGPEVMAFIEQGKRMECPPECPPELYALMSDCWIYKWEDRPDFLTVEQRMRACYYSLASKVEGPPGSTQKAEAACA

[4] = target: Tyrosine-protein kinase SYK (Homo sapiens) (UniProt P43405); test: Inhibition of human SYK (1 to 635 residues) assessed as residual activity at 500 nM in presence of 33P-ATP by filter binding assay relative to control
[5] = target: Serine/threonine-protein kinase 33 (Homo sapiens) (UniProt Q9BYT3); test: Inhibition of human STK33 (1 to 514 residues) assessed as residual activity at 500 nM in presence of 33P-ATP by filter binding assay relative to control
Serine/threonine-protein kinase 33 (Homo sapiens), sequence (Q9BYT3 whole entry, looked up, the tested form may be a part): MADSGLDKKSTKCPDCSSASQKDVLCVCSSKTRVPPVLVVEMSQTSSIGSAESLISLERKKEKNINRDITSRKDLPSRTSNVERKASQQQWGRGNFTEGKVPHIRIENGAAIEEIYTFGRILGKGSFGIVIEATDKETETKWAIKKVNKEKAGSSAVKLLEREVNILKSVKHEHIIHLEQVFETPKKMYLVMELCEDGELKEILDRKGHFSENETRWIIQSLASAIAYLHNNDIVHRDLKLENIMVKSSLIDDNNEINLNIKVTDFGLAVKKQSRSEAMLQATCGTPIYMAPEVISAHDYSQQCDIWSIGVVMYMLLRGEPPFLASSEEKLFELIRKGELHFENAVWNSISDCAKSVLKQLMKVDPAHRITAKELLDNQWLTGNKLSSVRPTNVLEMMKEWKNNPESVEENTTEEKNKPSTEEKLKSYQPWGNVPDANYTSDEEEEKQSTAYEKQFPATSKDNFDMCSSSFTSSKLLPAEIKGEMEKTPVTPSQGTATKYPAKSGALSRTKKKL

[6] = target: Receptor-interacting serine/threonine-protein kinase 2 (Homo sapiens) (UniProt O43353); test: Inhibition of human RIPK2 (2 to 311 residues) at 500 nM in presence of 33P-ATP by filter binding assay relative to control
[7] = Ratio of EC50 for antiparasitic activity against Cryptosporidium parvum Iowa oocysts infected in human HCT8 cells to IC50 for recombinant Cryptosporidium parvum FIKK; assay type: functional, cell-based
[8] = target: Tyrosine-protein kinase ABL1 (Homo sapiens) (UniProt P00519); test: Inhibition of human ABL (118 to 535 residues) assessed as residual activity at 500 nM in presence of 33P-ATP by filter binding assay relative to control
[9] = target: Casein kinase I isoform gamma-2 (Homo sapiens) (UniProt P78368); test: Inhibition of human CK1gamma2 (1 to 415 residues) assessed as residual activity at 500 nM in presence of 33P-ATP by filter binding assay relative to control
[10] = target: MAP kinase-activated protein kinase 2 (Homo sapiens) (UniProt P49137); test: Inhibition of human MAPKAPK2 (46 to 400 residues) assessed as residual activity at 500 nM in presence of 33P-ATP by filter binding assay relative to control
[11] = system: Serine/threonine-protein kinase PAK 2 (Homo sapiens), Q13177 [T402E]; test: Inhibition of human PAK2 T402E mutant (1 to 524 residues) assessed as residual activity at 500 nM in presence of 33P-ATP by filter binding assay relative to control
[12] = target: Ephrin type-B receptor 2 (Homo sapiens) (UniProt P29323); test: Inhibition of human EPHB2 (560 to 987 residues) assessed as residual activity at 500 nM in presence of 33P-ATP by filter binding assay relative to control
[13] = system: TGF-beta receptor type-1 (Homo sapiens), P36897 [T204D]; test: Inhibition of human TGFbetaR1 T204D mutant (200 to 501 residues) assessed as residual activity at 500 nM in presence of 33P-ATP by filter binding assay relative to control
[14] = target: Mitogen-activated protein kinase 1 (Homo sapiens) (UniProt P28482); test: Inhibition of human ERK2 (2 to 360 residues) assessed as residual activity at 500 nM in presence of 33P-ATP by filter binding assay relative to control
Mitogen-activated protein kinase 1 (Homo sapiens), sequence (P28482 whole entry, the tested form may be a part): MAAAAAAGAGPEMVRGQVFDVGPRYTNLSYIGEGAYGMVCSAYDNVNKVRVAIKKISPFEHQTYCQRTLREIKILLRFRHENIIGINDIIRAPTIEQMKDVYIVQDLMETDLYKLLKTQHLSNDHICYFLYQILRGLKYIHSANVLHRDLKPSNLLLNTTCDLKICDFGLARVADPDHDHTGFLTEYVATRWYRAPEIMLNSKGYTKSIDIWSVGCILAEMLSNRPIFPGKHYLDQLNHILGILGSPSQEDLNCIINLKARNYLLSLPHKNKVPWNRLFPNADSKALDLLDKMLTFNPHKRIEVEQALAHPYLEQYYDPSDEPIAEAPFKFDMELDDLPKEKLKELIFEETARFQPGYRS

[15] = target: Glycogen synthase kinase-3 beta (Homo sapiens) (UniProt P49841); test: Inhibition of human GSK3beta (2 to 420 residues) assessed as residual activity at 500 nM in presence of 33P-ATP by filter binding assay relative to control
[16] = target: MAP/microtubule affinity-regulating kinase 4 (Homo sapiens) (UniProt Q96L34); test: Inhibition of human MARK4 (2 to 752 residues) assessed as residual activity at 500 nM in presence of 33P-ATP by filter binding assay relative to control
MAP/microtubule affinity-regulating kinase 4 (Homo sapiens), sequence (Q96L34 whole entry, the tested form may be a part): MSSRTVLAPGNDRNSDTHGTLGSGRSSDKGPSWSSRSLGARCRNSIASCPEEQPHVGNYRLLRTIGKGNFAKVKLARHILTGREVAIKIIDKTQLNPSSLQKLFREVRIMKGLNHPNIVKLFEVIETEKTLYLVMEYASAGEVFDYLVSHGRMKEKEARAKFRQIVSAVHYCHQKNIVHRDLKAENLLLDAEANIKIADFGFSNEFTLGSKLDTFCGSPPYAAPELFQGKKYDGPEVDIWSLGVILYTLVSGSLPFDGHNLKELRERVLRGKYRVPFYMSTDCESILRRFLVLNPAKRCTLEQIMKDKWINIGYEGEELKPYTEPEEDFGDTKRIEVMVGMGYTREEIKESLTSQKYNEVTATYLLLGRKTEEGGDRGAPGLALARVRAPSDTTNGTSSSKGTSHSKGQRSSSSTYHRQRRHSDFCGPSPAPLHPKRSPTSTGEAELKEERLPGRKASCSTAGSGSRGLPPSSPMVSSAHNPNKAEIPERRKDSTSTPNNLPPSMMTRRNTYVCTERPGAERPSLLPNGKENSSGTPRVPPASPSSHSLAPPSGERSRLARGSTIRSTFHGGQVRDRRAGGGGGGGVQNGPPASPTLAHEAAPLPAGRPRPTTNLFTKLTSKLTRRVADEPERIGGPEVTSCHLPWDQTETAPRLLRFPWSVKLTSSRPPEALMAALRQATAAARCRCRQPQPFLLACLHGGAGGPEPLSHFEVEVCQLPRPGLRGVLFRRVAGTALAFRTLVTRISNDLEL

[17] = target: Serine/threonine-protein kinase Nek2 (Homo sapiens) (UniProt P51955); test: Inhibition of human NEK2A (1 to 445 residues) assessed as residual activity at 500 nM in presence of 33P-ATP by filter binding assay relative to control
[18] = target: Ribosomal protein S6 kinase alpha-1 (Homo sapiens) (UniProt Q15418); test: Inhibition of human RSK1 (1 to 735 residues) assessed as residual activity at 500 nM in presence of 33P-ATP by filter binding assay relative to control
Ribosomal protein S6 kinase alpha-1 (Homo sapiens), sequence (Q15418 whole entry, the tested form may be a part): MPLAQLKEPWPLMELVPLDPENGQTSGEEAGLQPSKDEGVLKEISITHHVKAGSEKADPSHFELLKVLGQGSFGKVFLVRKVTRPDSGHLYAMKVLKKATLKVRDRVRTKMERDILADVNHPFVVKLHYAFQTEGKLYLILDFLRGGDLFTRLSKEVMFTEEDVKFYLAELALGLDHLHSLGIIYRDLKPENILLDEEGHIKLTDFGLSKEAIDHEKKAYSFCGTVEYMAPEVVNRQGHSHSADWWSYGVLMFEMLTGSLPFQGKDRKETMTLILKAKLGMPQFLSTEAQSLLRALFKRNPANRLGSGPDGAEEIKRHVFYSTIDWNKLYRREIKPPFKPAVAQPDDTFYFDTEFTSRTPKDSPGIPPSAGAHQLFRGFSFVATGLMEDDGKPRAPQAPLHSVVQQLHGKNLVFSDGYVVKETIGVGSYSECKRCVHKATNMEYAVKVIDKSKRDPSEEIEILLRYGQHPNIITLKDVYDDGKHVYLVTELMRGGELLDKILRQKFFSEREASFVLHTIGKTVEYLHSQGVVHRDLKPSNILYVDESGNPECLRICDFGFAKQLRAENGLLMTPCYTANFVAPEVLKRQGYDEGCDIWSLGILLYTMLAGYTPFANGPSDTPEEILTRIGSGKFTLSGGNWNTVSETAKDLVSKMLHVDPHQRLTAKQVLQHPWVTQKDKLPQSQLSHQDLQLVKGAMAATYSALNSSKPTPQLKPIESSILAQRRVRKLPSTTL

[19] = target: SRSF protein kinase 1 (Homo sapiens) (UniProt Q96SB4); test: Inhibition of human SRPK1 (2 to 654 residues) assessed as residual activity at 500 nM in presence of 33P-ATP by filter binding assay relative to control
[20] = target: Dual specificity tyrosine-phosphorylation-regulated kinase 3 (Homo sapiens) (UniProt O43781); test: Inhibition of human DYRK3 (1 to 588 residues) assessed as residual activity at 500 nM in presence of 33P-ATP by filter binding assay relative to control
[21] = target: Homeodomain-interacting protein kinase 1 (Homo sapiens) (UniProt Q86Z02); test: Inhibition of human HIPK1 (158 to 555 residues) assessed as residual activity at 500 nM in presence of 33P-ATP by filter binding assay relative to control
Homeodomain-interacting protein kinase 1 (Homo sapiens), sequence (Q86Z02 whole entry, looked up, the tested form may be a part): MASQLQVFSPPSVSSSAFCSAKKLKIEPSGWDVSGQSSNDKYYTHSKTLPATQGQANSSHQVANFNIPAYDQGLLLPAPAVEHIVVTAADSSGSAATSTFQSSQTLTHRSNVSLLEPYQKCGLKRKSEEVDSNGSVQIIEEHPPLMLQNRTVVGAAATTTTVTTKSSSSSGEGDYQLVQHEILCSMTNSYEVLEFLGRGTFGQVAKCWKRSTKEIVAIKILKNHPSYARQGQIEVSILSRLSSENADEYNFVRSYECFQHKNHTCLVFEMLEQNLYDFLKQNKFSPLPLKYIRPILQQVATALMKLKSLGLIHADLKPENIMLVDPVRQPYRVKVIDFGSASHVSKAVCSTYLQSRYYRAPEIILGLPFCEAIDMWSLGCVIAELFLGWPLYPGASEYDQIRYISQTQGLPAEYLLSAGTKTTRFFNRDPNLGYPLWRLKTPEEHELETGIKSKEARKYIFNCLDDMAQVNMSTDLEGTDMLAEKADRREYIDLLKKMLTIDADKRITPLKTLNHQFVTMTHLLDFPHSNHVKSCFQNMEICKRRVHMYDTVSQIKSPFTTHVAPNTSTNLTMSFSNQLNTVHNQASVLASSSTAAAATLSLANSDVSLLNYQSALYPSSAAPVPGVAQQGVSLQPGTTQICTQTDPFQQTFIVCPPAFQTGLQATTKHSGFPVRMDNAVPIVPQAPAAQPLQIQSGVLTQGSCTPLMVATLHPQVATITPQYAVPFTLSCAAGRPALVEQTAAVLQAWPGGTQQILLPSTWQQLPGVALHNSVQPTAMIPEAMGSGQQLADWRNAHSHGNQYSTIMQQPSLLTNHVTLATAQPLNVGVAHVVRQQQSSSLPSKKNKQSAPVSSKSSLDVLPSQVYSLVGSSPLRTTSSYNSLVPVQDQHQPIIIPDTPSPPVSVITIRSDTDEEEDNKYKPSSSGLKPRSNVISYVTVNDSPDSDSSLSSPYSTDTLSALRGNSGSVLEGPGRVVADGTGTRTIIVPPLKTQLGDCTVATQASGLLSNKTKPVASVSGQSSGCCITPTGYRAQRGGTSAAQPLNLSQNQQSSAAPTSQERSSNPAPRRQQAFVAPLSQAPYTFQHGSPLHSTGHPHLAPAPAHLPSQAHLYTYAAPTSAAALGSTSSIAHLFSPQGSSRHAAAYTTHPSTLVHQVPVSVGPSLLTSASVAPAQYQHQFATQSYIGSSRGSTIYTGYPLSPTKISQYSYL

[22] = target: NUAK family SNF1-like kinase 1 (Homo sapiens) (UniProt O60285); test: Inhibition of human NUAK1 (2 to 660 residues) assessed as residual activity at 500 nM in presence of 33P-ATP by filter binding assay relative to control
[23] = target: Phosphorylase b kinase gamma catalytic chain, skeletal muscle/heart isoform (Homo sapiens) (UniProt Q16816); test: Inhibition of human PHKgamma1 (2 to 297 residues) assessed as residual activity at 500 nM in presence of 33P-ATP by filter binding assay relative to control
[24] = target: Aurora kinase A (Homo sapiens) (UniProt O14965); test: Inhibition of human Aurora-A (2 to 403 residues) assessed as residual activity at 500 nM in presence of 33P-ATP by filter binding assay relative to control
[25] = target: Serine/threonine-protein kinase PAK 4 (Homo sapiens) (UniProt O96013); test: Inhibition of human PAK4 (2 to 591 residues) assessed as residual activity at 500 nM in presence of 33P-ATP by filter binding assay relative to control
Serine/threonine-protein kinase PAK 4 (Homo sapiens), sequence (O96013 whole entry, looked up, the tested form may be a part): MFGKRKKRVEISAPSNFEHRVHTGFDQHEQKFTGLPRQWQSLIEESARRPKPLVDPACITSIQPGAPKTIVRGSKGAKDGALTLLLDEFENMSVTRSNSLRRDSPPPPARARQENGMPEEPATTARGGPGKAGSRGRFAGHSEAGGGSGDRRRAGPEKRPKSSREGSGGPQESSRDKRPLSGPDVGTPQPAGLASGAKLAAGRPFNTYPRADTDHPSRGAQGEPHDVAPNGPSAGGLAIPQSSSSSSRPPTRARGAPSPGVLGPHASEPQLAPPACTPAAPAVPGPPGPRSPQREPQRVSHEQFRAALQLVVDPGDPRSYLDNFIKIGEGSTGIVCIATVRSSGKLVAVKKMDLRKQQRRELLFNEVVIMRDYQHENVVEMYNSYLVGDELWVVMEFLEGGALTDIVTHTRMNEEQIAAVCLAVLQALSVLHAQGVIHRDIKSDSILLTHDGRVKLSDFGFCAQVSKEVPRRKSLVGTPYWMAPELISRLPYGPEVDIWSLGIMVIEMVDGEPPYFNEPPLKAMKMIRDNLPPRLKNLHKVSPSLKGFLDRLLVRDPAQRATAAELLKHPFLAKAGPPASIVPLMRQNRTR

[26] = system: Serine/threonine-protein kinase OSR1 (Homo sapiens), O95747 [T185E]; test: Inhibition of human OSR1 T185E mutant (1 to 342 residues) assessed as residual activity at 500 nM in presence of 33P-ATP by scintillation counting method relative to control

Activity [1]: 101%
Activity [2]: 115%
Activity [3]: 97%
Activity [4]: 95%
Activity [5]: 97%
inhibition [6]: 70%
Activity [8]: 81%
Activity [9]: 113%
Activity [10]: 108%
Activity [11]: 103%
Activity [12]: 95%
Activity [13]: 14%
Activity [14]: 80%
Activity [15]: 112%
Activity [16]: 116%
Activity [17]: 102%
Activity [18]: 128%
Activity [19]: 112%
Activity [20]: 109%
Activity [21]: 106%
Activity [22]: 86%
Activity [23]: 107%
Activity [24]: 120%
Activity [25]: 106%
Activity [26]: 119%
Structure (SMILES): Cc1cccc(-c2nc(N)sc2-c2ccc3ncccc3n2)c1
Ratio [7]: 12800
